Data: PMC9994261 (Cell, 2023)
≈ marks a conversion by molar mass, not a printed value. Read-outs that look alike come from different tables or passages of the source.

Columns and labels:
Mtb H37Rv = test: Mouse model of highly acute TB; format: in vivo
physchem [1] = format: physicochemical
[2] = format: in vitro ADME
M. bovis BCG Pasteur = test: microbe, parasite or virus in culture; format: cell-based, Mycobacterium bovis
RAW264.7 cells = format: in vitro ADME, murine; conditions: RAW macrophages, 10 μM
Procedure: RAW264.7 cells were allowed to adhere in 96 wells plates for 4 hours before compounds were added at 10 μM. Intracellular concentrations were measured by LC-MS/MS after cellular lysis. For each point, up to 4 hours, the Intra/Extra cellular ratio was calculated. Points are the mean ± SD of four tests. Clarithromycin and Azithromycin were used as references.

Mtb Erdman = test: Mouse model of chronic TB; format: in vivo; conditions: 300 mg/kg oral once daily
physchem [3] = conditions: pH 7.4
in vitro = in vitro ADME; conditions: human, Caco-2; read-out: Permeability in Caco2 cells (Papp)

**Q.** What does the source list for `CON=C1CC(C)OC(OC2C(C)CC(C)(OC(=O)NC(C)(C)CNS(=O)(=O)c3ccccc3)C(=O)C(C)C(OC(=O)CC(C)C)C(C)C(C(C)COC3OC(C)C(O)C(OC)C3OC)OC(=O)C(C)C(OC3CC(C)N(C)CC(C)O3)C2C)C1O` (stereo not shown) [SEQ-9]?
**A.** Decrease in CFU (Mtb H37Rv; 100 mg/kg, lipid-based formulation): 2 log10; Reduction of mean lung CFU (Mtb H37Rv; 300 mg/kg, after 2 weeks of treatment): 1.42 log10; Minimum effective dose (MED) (Mtb H37Rv; lipid-based formulation): 100 mg/kg; solubility (physchem [1]; MCT pH 7.4, read-out: Solubility: MCT@pH 7.4): 530 µg/mL (≈ 426 µM); solubility (physchem [1]; aqueous buffer, PBS pH 7.4, read-out: Solubility: PBS@pH 7.4): 51 µg/mL (≈ 41 µM); Metabolic stability in rat liver microsomes (% metabolized compound after 20 min) [2]: 9%; Growth inhibition (MIC80) (M. bovis BCG Pasteur): 0.56 µM; MIC80 (M. bovis BCG Pasteur; Mycobacterium tuberculosis variant bovis BCG, BCG, read-out: Growth inhibition (MIC80)): 0.32 µM (≈ 0.398 µg/mL); MIC (M. bovis BCG Pasteur; Mycobacterium tuberculosis variant bovis BCG, BCG, read-out: MIC in Pasteur M. bovis BCG): 0.32 µM (≈ 0.398 µg/mL); Intra-macrophage ratio (intra versus extracellular concentration) (RAW264.7 cells): ~60 fold; log CFU reduction compared with pre-treatment CFU (Mtb Erdman): 1.7 log CFU; logD (physchem [3]): 3.4; Papp (in vitro): 1.5 ×10⁻⁶ cm/s
